From ChEMBL document CHEMBL3045802, “Synthesis and in vitro antitumor activity of new quinoline, pyrimido[4,5-b]quinoline, [1,2,3]triazino[4,5-b]quinoline, and [1,2,4]triazolo[2,3:3,4]pyrimido[6,5-b]quinoline analogs” (2013)

Assays:
Type in all cases: functional
T47D = assay: Cytotoxicity against Homo sapiens (human) T47D cells assessed as growth inhibition at 10 uM after 48 hr by coulter counter analysis; details: read-out: GI
A498 = assay: Cytotoxicity against Homo sapiens (human) A498 cells assessed as growth inhibition at 10 uM after 48 hr by coulter counter analysis; details: A498, 48 h, read-out: GI
HOP-92 = assay: Cytotoxicity against Homo sapiens (human) HOP92 cells assessed as growth inhibition at 10 uM after 48 hr by coulter counter analysis; details: HOP-92, 48 h, read-out: GI
IGROV-1 = assay: Cytotoxicity against Homo sapiens (human) IGROV1 cells assessed as growth inhibition at 10 uM after 48 hr by coulter counter analysis; details: IGROV-1, 48 h, read-out: GI
SF-295 = assay: Cytotoxicity against Homo sapiens (human) SF295 cells assessed as growth inhibition at 10 uM after 48 hr by coulter counter analysis; details: SF-295, 48 h, read-out: GI
HCT-15 = assay: Cytotoxicity against Homo sapiens (human) HCT15 cells assessed as growth inhibition at 10 uM after 48 hr by coulter counter analysis; details: HCT-15, 48 h, read-out: GI
COLO 205 = assay: Cytotoxicity against Homo sapiens (human) COLO205 cells assessed as growth inhibition at 10 uM after 48 hr by coulter counter analysis; details: COLO 205, 48 h, read-out: GI
NCI-H226 = assay: Cytotoxicity against Homo sapiens (human) NCI-H226 cells assessed as growth inhibition at 10 uM after 48 hr by coulter counter analysis; details: NCI-H226, 48 h, read-out: GI
HCC 2998 = assay: Cytotoxicity against Homo sapiens (human) HCC2998 cells assessed as growth inhibition at 10 uM after 48 hr by coulter counter analysis; details: HCC 2998, 48 h, read-out: GI
MCF7 = assay: Cytotoxicity against Homo sapiens (human) MCF7 cells assessed as growth inhibition at 10 uM after 48 hr by coulter counter analysis; details: MCF7, 48 h, read-out: GI
ACHN = assay: Cytotoxicity against Homo sapiens (human) ACHN cells assessed as growth inhibition at 10 uM after 48 hr by coulter counter analysis; details: read-out: GI
SK-OV-3 = assay: Cytotoxicity against Homo sapiens (human) SKOV3 cells assessed as growth inhibition at 10 uM after 48 hr by coulter counter analysis; details: SK-OV-3, 48 h, read-out: GI
MOLT-4 = assay: Cytotoxicity against Homo sapiens (human) MOLT4 cells assessed as growth inhibition at 10 uM after 48 hr by coulter counter analysis; details: MOLT-4, 48 h, read-out: GI
TK-10 = assay: Cytotoxicity against Homo sapiens (human) TK10 cells assessed as growth inhibition at 10 uM after 48 hr by coulter counter analysis; details: TK-10, 48 h, read-out: GI
SN12C = assay: Cytotoxicity against Homo sapiens (human) SN12C cells assessed as growth inhibition at 10 uM after 48 hr by coulter counter analysis; details: read-out: GI
786-0 = assay: Cytotoxicity against Homo sapiens (human) 786-0 cells assessed as growth inhibition at 10 uM after 48 hr by coulter counter analysis; details: 786-0, 48 h, read-out: GI
DU-145 = assay: Cytotoxicity against Homo sapiens (human) DU145 cells assessed as growth inhibition at 10 uM after 48 hr by coulter counter analysis; details: DU-145, 48 h, read-out: GI
RPMI-8226 = assay: Cytotoxicity against Homo sapiens (human) RPMI8226 cells assessed as growth inhibition at 10 uM after 48 hr by coulter counter analysis; details: RPMI-8226, 48 h, read-out: GI
SK-MEL-5 = assay: Cytotoxicity against Homo sapiens (human) SK-MEL-5 cells assessed as growth inhibition at 10 uM after 48 hr by coulter counter analysis; details: SK-MEL-5, 48 h, read-out: GI
OVCAR-5 = assay: Cytotoxicity against Homo sapiens (human) OVCAR5 cells assessed as growth inhibition at 10 uM after 48 hr by coulter counter analysis; details: OVCAR-5, 48 h, read-out: GI
NCI-H23 = assay: Cytotoxicity against Homo sapiens (human) NCI-H23 cells assessed as growth inhibition at 10 uM after 48 hr by coulter counter analysis; details: NCI-H23, 48 h, read-out: GI
SK-MEL-2 = assay: Cytotoxicity against Homo sapiens (human) SK-MEL-2 cells assessed as growth inhibition at 10 uM after 48 hr by coulter counter analysis; details: SK-MEL-2, 48 h, read-out: GI
SNB-75 = assay: Cytotoxicity against Homo sapiens (human) SNB75 cells assessed as growth inhibition at 10 uM after 48 hr by coulter counter analysis; details: SNB-75, 48 h, read-out: GI
PC-3 = assay: Cytotoxicity against Homo sapiens (human) PC3 cells assessed as growth inhibition at 10 uM after 48 hr by coulter counter analysis; details: PC-3, 48 h, read-out: GI
HT-29 = assay: Cytotoxicity against Homo sapiens (human) HT-29 cells assessed as growth inhibition at 10 uM after 48 hr by coulter counter analysis; details: HT-29, 48 h, read-out: GI
M14 = assay: Cytotoxicity against Homo sapiens (human) M14 cells assessed as growth inhibition at 10 uM after 48 hr by coulter counter analysis; details: M14, 48 h, read-out: GI
SF-268 = assay: Cytotoxicity against Homo sapiens (human) SF268 cells assessed as growth inhibition at 10 uM after 48 hr by coulter counter analysis; details: SF-268, 48 h, read-out: GI
MDA-MB-468 = assay: Cytotoxicity against Homo sapiens (human) MDA-MB-468 cells assessed as growth inhibition at 10 uM after 48 hr by coulter counter analysis; details: MDA-MB-468, 48 h, read-out: GI
EKVX = assay: Cytotoxicity against Homo sapiens (human) EKVX cells assessed as growth inhibition at 10 uM after 48 hr by coulter counter analysis; details: read-out: GI
SF-539 = assay: Cytotoxicity against Homo sapiens (human) SF539 cells assessed as growth inhibition at 10 uM after 48 hr by coulter counter analysis; details: SF-539, 48 h, read-out: GI
HL-60(TB) = assay: Cytotoxicity against Homo sapiens (human) HL-60(TB) cells assessed as growth inhibition at 10 uM after 48 hr by coulter counter analysis; details: HL-60, 48 h, read-out: GI
BT-549 = assay: Cytotoxicity against Homo sapiens (human) BT549 cells assessed as growth inhibition at 10 uM after 48 hr by coulter counter analysis; details: BT-549, 48 h, read-out: GI
OVCAR-3 = assay: Cytotoxicity against Homo sapiens (human) OVCAR3 cells assessed as growth inhibition at 10 uM after 48 hr by coulter counter analysis; details: OVCAR-3, 48 h, read-out: GI
MDA-MB-435 = assay: Cytotoxicity against Homo sapiens (human) MDA-MB-435 cells assessed as growth inhibition at 10 uM after 48 hr by coulter counter analysis; details: MDA-MB-435, 48 h, read-out: GI

| Compound | inhibition of growth at 10 µM (T47D) | inhibition of growth at 10 µM (A498) | inhibition of growth at 10 µM (HOP-92) | inhibition of growth at 10 µM (IGROV-1) | inhibition of growth at 10 µM (SF-295) | inhibition of growth at 10 µM (HCT-15) | inhibition of growth at 10 µM (COLO 205) | inhibition of growth at 10 µM (NCI-H226) | inhibition of growth at 10 µM (HCC 2998) | inhibition of growth at 10 µM (MCF7) | inhibition of growth at 10 µM (ACHN) | inhibition of growth at 10 µM (SK-OV-3) | inhibition of growth at 10 µM (MOLT-4) | inhibition of growth at 10 µM (TK-10) | inhibition of growth at 10 µM (SN12C) | inhibition of growth at 10 µM (786-0) | inhibition of growth at 10 µM (DU-145) | inhibition of growth at 10 µM (RPMI-8226) | inhibition of growth at 10 µM (SK-MEL-5) | inhibition of growth at 10 µM (OVCAR-5) | other results |
| --- | --- | --- | --- | --- | --- | --- | --- | --- | --- | --- | --- | --- | --- | --- | --- | --- | --- | --- | --- | --- | --- |
| COc1ccc(C2C3=C(CCCC3)Nc3nc(CC#N)[nH]c(=O)c32)cc1OC (stereo not drawn) | < 10% | < 10% | < 10% | < 10% | < 10% | < 10% | < 10% | 11.3% | < 10% | < 10% | < 10% | < 10% | < 10% | < 10% | < 10% | < 10% | < 10% | < 10% | < 10% | < 10% | inhibition of growth at 10 µM (NCI-H23): < 10%; inhibition of growth at 10 µM (SK-MEL-2): < 10%; inhibition of growth at 10 µM (SNB-75): < 10%; inhibition of growth at 10 µM (PC-3): < 10%; inhibition of growth at 10 µM (HT-29): < 10%; inhibition of growth at 10 µM (M14): < 10%; inhibition of growth at 10 µM (SF-268): < 10%; inhibition of growth at 10 µM (MDA-MB-468): < 10%; inhibition of growth at 10 µM (EKVX): < 10%; inhibition of growth at 10 µM (SF-539): < 10%; inhibition of growth at 10 µM (HL-60(TB)): < 10%; inhibition of growth at 10 µM (BT-549): < 10%; inhibition of growth at 10 µM (OVCAR-3): < 10%; inhibition of growth at 10 µM (MDA-MB-435): < 10% |
| O=c1[nH]c(-c2ccccc2)nc2c1C(c1ccc(Cl)cc1)C1=C(CCCC1)N2 (stereo not drawn) | 15.5% | 11.4% | 12% | < 10% | < 10% | < 10% | < 10% | 12.3% | < 10% | < 10% | < 10% | < 10% | 13.6% | < 10% | < 10% | < 10% | < 10% | < 10% | 17.8% | < 10% | inhibition of growth at 10 µM (NCI-H23): < 10%; inhibition of growth at 10 µM (SK-MEL-2): < 10%; inhibition of growth at 10 µM (SNB-75): 15.5%; inhibition of growth at 10 µM (PC-3): < 10%; inhibition of growth at 10 µM (HT-29): < 10%; inhibition of growth at 10 µM (M14): < 10%; inhibition of growth at 10 µM (SF-268): < 10%; inhibition of growth at 10 µM (MDA-MB-468): < 10%; inhibition of growth at 10 µM (EKVX): < 10%; inhibition of growth at 10 µM (SF-539): < 10%; inhibition of growth at 10 µM (HL-60(TB)): < 10%; inhibition of growth at 10 µM (BT-549): < 10%; inhibition of growth at 10 µM (OVCAR-3): < 10%; inhibition of growth at 10 µM (MDA-MB-435): < 10% |
